Reference: article PMC9598407, “Identification of Staphylococcus aureus Penicillin Binding Protein 4 (PBP4) Inhibitors” (Antibiotics, 2022)
Entries after “also recorded” stand apart in the source; their conditions may differ.

Assays:
S. aureus PBP2a = S. aureus PBP2a (Staphylococcus aureus, UniProt P07944); assay: BOCILLIN FL fluorescence polarization assay, PBP2A; format: binding; conditions: 50 µM compound; read-out: Inhibition of BOCILLIN FL labeling of PBP2A
Method: A dose response study was conducted (Figure 4B) in which PBP4 was preincubated with 0, 3.125, 6.25, 12.5, 25, or 50 µM of ampicillin, kanamycin, or 9314848.
First, fluorescence polarization assays were performed as previously described, but with minor modifications. Briefly, the indicated amount of the putative PBP4 inhibitor or control antibiotic was incubated with 1 µM recombinant B. subtilis PBP4 or S. aureus PBP2a in potassium phosphate buffer (40 mM K2HPO4 and 10 mM KH2PO4) for 1 h in black 96-well microtiter plates (Corning Life Sciences, Corning, NY, USA). Following incubation, 1 µM (final concentration) BOCILLIN FL penicillin was added, and the mixture was incubated for 30 min. BOCILLIN FL fluorescence polarization was measured at (495 nm excitation and 545 nm emission) in a SpectraMax M5 multimode plate reader (Molecular Devices, San Jose, CA, USA). […] Second, gel electrophoresis and fluorescence detection was used to measure BOCILLIN FL labeling of PBP4 treated with the known PBP4 inhibitor cefoxitin (positive control), kanamycin (negative control) or 9314848 (test compound), as previously described but with minor modifications. […] The percentage BOCILLIN FL binding inhibition was then calculated as the normalized band intensity of antibiotic/compound treated sample as compared to the control sample (PBP4 + BOCILLIN FL in the absence of compound).

[1] = tested on: pbp4 expression in S. aureus CRB; assay: qRT-PCR of pbp4 transcript titers, CRB; format: cell-based, Staphylococcus aureus; conditions: 25 µM compound, 3 h
Description: Given that each of the six compounds appeared to affect PBP4-mediated antibiotic resistance, we considered that their effects may be modulated by either inhibiting the protein’s function or by reducing pbp4 expression, the latter of which may be readily overcome by regulatory mutations that could in-turn easily result in resistance. Thus, we sought to prioritize compounds that may affect the protein’s function and de-prioritize compounds that affect the protein’s expression. Quantitative real-time reverse transcriptase PCR (qRT-PCR) was used to measure the pbp4 transcript titers within USA300 and CRB cells following compound treatment (Figure 2). […] We chose to focus the remainder of our studies on 9314848 (Figure 3A) because the molecule appeared the more druggable and chemically tractable for downstream structure activity relationship studies.
PBP4 transcript titers of bacterial cells exposed to putative PBP4 inhibitors were measured using real time quantitative PCR (RT-qPCR), as previously described. […] Bacterial RNA was amplified and measured using PerfeCTa SYBR Green FastMix and qScript cDNA SuperMix kits following the manufacturer’s recommendations (QuantaBio, Beverly, MA, USA). […]

S. aureus strain USA300 = assay: microbe, parasite or virus in culture; format: cell-based; conditions: Staphylococcus aureus, USA300, read-out: Ceftobiprole resistance (MIC) in the presence of compound
Method: (§1) Fractional inhibitory testing was performed in checkerboard format to determine whether putative PBP4 inhibitors potentiated the antimicrobial effects of β-lactams toward S. aureus strains USA300 and CRB, as previously described. To do so, in triplicate 10^5 CFU of each strain (10 µL) was added to individual wells of a microtiter plate containing 90 µL MH media. […] Plates were incubated at 37 °C for 16–20 h and the lowest concentration of each test agent that inhibited bacterial growth alone or in combination was determined by the naked eye. The fractional inhibitory concentration (FIC) index was calculated using the formula: FIC of A (MIC of drug A in combination/MIC of drug A alone) + FIC B ([…]/MIC of drug B alone). A synergistic interaction was defined as a FICI value of less than 0.5, an additive interaction was defined as a FICI value between 0.5 and 1.0, an indifferent interaction was defined as a FICI value between 1.0 and 4.0, and an antagonistic interaction was defined as a FICI value of more than 4.0 [46].

S. aureus strain CRB = assay: Fractional inhibitory concentration checkerboard, ceftobiprole + putative PBP4 inhibitor, strain CRB; format: cell-based, Staphylococcus aureus
Method: as §1

Enterococcus faecalis = assay: Ceftobiprole susceptibility with compound, Enterococcus faecalis; format: cell-based; conditions: not shown
Method: As a means to further evaluate whether the compound affects PBP4 activity a series of assays were performed.

Sequence of S. aureus PBP2a (P07944 whole entry): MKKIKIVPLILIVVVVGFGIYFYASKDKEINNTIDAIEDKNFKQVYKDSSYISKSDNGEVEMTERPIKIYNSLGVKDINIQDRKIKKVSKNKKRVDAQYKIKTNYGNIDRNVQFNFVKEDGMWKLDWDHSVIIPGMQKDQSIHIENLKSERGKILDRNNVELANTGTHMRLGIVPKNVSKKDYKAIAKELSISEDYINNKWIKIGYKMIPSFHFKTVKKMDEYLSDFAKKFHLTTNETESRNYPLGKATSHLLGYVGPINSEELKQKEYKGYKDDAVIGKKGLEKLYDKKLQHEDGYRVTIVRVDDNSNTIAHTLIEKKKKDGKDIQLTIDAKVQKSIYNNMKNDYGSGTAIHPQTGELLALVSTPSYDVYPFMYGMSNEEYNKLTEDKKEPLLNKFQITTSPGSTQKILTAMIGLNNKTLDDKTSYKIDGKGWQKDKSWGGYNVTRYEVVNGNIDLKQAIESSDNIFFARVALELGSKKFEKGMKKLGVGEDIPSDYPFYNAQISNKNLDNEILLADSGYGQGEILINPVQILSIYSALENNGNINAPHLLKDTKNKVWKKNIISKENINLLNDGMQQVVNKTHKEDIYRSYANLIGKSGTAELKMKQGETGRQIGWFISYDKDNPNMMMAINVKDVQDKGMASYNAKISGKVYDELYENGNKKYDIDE

CC1CCN(C(=O)c2cccc(NC(=O)Nc3ccc(Cl)cc3)c2)CC1 [Compound 9314848]
inhibition at 50 µM (S. aureus PBP2a): 25.8 ± 11.4%
pbp4 expression (mRNA titer, qRT-PCR) [1]: did not seem to affect pbp4 expression; also recorded: did not significantly impact pbp4 transcription
MIC (S. aureus strain USA300): 0.25 µg/mL
MIC (S. aureus strain CRB; Staphylococcus aureus, read-out: CRB Alone Cmpd (putative PBP4 inhibitor MIC alone)): 400 µM
CRB Combination BPR (ceftobiprole MIC in combination) (S. aureus strain CRB; strain CRB, ceftobiprole combined with the indicated putative PBP4 inhibitor): 8 µg/mL
CRB Combination Cmpd (compound concentration in combination) (S. aureus strain CRB; strain CRB, compound combined with ceftobiprole): 25 µM
CRB Fold-decrease in ceftobiprole resistance in combination (S. aureus strain CRB; strain CRB, in combination with the indicated putative PBP4 inhibitor): 16 fold
Effect on ceftobiprole susceptibility (Enterococcus faecalis): no effect
